Experimental data: patent publication US12534469B2 (CHILDREN'S HOSPITAL MEDICAL CENTER, priority 2020, dated 2026)
Entries after “also recorded” stand apart in the source; their conditions may differ.

Tests used:
MOLM14 (D835Y) cells = test: Combination drug screening, 10 x 10 matrix, cell viability (Cell Titer Glo); assay type: cell-based; conditions: for Interaction with Venetoclax / Sum Excess HSA: combination with Venetoclax, 10 x 10 dataset; for Sum Excess HSA: 48 hours
Description: Briefly, 10 nL of compounds were acoustically dispensed into 1536-well white polystyrene tissue culture-treated plates with an Echo 550 acoustic liquid handler (Labcyte). MOLM14 (D835Y) cells were then added to compound-containing plates at a density of 500-cells/well in 5 μL of medium. A 10-point custom concentration range was used for all listed drugs. Plates were incubated for 48 hours at standard incubator conditions covered by a stainless steel gasketed lid to prevent evaporation. 48 h post compound addition, 3 μL of Cell Titer Glo (Promega) were added to each well and plates were incubated at room temperature for 15 minutes with the stainless-steel lid in place. Luminescence readings were taken using a Viewlux imager (PerkinElmer) with a 2 second exposure time per plate.
However, different methodologies may yield different numerical scores, and different definitions of what constitutes a deviation from mere additivity vs true drug synergy.
However, the utility in certain drug combinations vs others should not be distinguished based on cutoffs between HSA scores, because the score itself is only a relative indicator that is completely dependent on experimental design and is not an absolute number. Furthermore, the concept of what constitutes clinically meaningful drug synergy is something that is still being debated, not only between pharmacologists and physicians, but amongst pharmacologists themselves.

FLT3 D835H = target: T1, FLT3 D835H (Homo sapiens, UniProt P36888, D835H); test: DiscoverX KINOMEscan competition binding assay, FLT3 D835H
T1 construct: purchased DiscoverX (KINOMEscan); host or cells: E. coli (T7 phage) or HEK-293
T1 sequence (P36888 27-993 D835H): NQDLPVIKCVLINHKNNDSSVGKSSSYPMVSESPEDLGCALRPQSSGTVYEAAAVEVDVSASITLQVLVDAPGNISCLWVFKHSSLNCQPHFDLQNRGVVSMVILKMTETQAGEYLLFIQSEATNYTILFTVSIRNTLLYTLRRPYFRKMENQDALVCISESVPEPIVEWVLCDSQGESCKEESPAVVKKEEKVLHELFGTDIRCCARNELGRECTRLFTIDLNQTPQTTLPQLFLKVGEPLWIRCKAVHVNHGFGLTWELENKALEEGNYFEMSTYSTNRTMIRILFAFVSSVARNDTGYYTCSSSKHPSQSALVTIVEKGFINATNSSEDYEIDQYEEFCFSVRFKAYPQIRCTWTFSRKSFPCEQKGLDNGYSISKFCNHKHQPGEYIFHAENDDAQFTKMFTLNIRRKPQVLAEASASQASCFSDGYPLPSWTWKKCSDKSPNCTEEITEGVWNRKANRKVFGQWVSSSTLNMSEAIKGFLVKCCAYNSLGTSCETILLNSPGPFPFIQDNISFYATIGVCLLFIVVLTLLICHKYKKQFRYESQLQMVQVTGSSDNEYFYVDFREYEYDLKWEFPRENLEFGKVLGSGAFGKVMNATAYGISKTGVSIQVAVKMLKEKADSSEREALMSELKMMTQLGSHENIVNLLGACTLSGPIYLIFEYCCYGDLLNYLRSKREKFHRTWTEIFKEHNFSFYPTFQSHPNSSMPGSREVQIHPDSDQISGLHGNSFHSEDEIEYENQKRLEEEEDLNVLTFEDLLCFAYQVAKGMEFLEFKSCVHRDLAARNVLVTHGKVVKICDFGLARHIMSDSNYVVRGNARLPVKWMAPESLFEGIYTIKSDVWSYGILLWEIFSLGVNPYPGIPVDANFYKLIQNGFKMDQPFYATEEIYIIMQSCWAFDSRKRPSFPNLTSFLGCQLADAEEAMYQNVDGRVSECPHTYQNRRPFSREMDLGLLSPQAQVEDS
Text: Kinase binding data were obtained for various exemplary compounds prepared according to Examples 1-25 using the DiscoverX KINOMEscan® active site-directed competition binding site-directed assay protocol described below. […] As a result, the data report thermodynamic interaction affinities (Kd values), rather than IC50 values that are dependent on ATP concentrations. The assay uses a DNA-tagged version of the protein kinase, and an immobilized ligand bound to a solid support. Compounds that directly or indirectly prevent kinase binding to the immobilized ligand reduce the amount of kinase captured on the solid support, which is detected using an ultra-sensitive qPCR method. Affinity constants reported from the assay have been reported to be independent of the immobilized ligand used that is coupled to the solid support (See supplemental information in Fabian, M. A. et. al., (2005) Nat. Biotechnol. 23, 329-336; Wodicka, L. M. et. al., (2010) Chem. Biol. 17, 1241-1249.)
Kinase-tagged T7 phage strains were prepared in an E. coli host derived from the BL21 strain. E. coli were grown to log-phase and infected with T7 phage and incubated with shaking at 32° C. until lysis. The lysates were centrifuged and filtered to remove cell debris. The remaining kinases were produced in HEK-293 cells and subsequently tagged with DNA for qPCR detection. […] The liganded beads were blocked with excess biotin and washed with blocking buffer (SeaBlock (Pierce), 1% BSA, 0.05% Tween 20, 1 mM DTT) to remove unbound ligand and to reduce non-specific binding. […] Test compounds were prepared as 111× stocks in 100% DMSO. Kds were determined using an 11-point 3-fold compound dilution series with three DMSO control points. […] The compounds were then diluted directly into the assays such that the final concentration of DMSO was 0.9%. All reactions were performed in polypropylene 384-well plates. Each was a final volume of 0.02 mL. […] The kinase concentration in the eluates was measured by qPCR.
Binding constants (Kds) were calculated with a standard dose-response curve using the Hill equation. […]

Compound	Interaction with Venetoclax (MOLM14 (D835Y) cells)	Sum Excess HSA (MOLM14 (D835Y) cells)	concentration at which synergy (Delta Bliss score) is highest (MOLM14 (D835Y) cells; combined with 15.6 nM Venetoclax, 10×10 array) [nM]	Kd (FLT3 D835H) [nM]	concentration of compound required to fully potentiate a 7.8 nM concentration of Venetoclax to <5% of the maximum response (MOLM14 (D835Y) cells; 7.8 nM Venetoclax, 10×10 combination) [nM]
COc1cc2ncc(-c3nc(N[C@H]4CNCC[C@@H]4F)c(F)cc3F)n2nc1C1CC1 [Compound 108, 6-(6-cyclopropyl-7-methoxyimidazo[1,2-b]pyridazin-3-yl)-3,5-difluoro-N-((3S,4S)-4-fluoropiperidin-3-yl)pyridin-2-amine]	profound synergism	−480.4	0.8 to 1.6		
COc1cc2ncc(-c3cccc(N[C@H]4CNC[C@@H]4C(F)(F)F)n3)n2nc1C1CC1 [Compound 99, 6-(6-cyclopropyl-7-methoxyimidazo[1,2-b]pyridazin-3-yl)-N-((3R,4S)-4-(trifluoromethyl)pyrrolidin-3-yl)pyridin-2-amine]	profound synergism; also recorded: Synergistic	−789.4			
COc1cc2ncc(-c3cccc(N[C@@H]4CCNC4)n3)n2nc1C1CC1 [Compound 97, (R)-6-(6-cyclopropyl-7-methoxyimidazo[1,2-b]pyridazin-3-yl)-N-(pyrrolidin-3-yl)pyridin-2-amine]				0.18	
COc1cc2ncc(-c3cccc(N[C@H]4CNC[C@@H]4F)n3)n2nc1C1CC1 [Compound 96, 6-(6-cyclopropyl-7-methoxyimidazo[1,2-b]pyridazin-3-yl)-N-((3S,4S)-4-fluoropyrrolidin-3-yl)pyridin-2-amine]	profound synergism	−543.2		0.23	
COc1cc2ncc(-c3cccc(N[C@H]4CNCC[C@@H]4F)n3)n2nc1C1CC1 [Compound 102, 6-(6-cyclopropyl-7-methoxyimidazo[1,2-b]pyridazin-3-yl)-N-((3S,4S)-4-fluoropiperidin-3-yl)pyridin-2-amine]	profound synergism	−188.8		0.21	
COc1cc2ncc(-c3nc(N[C@@H]4CCCNC4)c(F)cc3F)n2nc1C1CC1 [Compound 106, (R)-6-(6-cyclopropyl-7-methoxyimidazo[1,2-b]pyridazin-3-yl)-3,5-difluoro-N-(piperidin-3-yl)pyridin-2-amine]	profound synergism	−334			3.1
